# No end group written: not given here.
# System: not given
# Experiment: not given
# Settings: not given
row,Substance,α-helix content
1,H-FDRPFL-OH,22.4%
2,H-KWEKPF-OH,20.2%

# System: not given
# Experiment: not given
# Settings: not given
# Remark: another data set of the same source
row,Substance,β-sheet content
1,H-FDRPFL-OH,38.3%
2,H-KWEKPF-OH,38%

# Biological target: T1, ACE (Oryctolagus cuniculus, UniProt P12822)
# T1 sequence (P12822 34-1310): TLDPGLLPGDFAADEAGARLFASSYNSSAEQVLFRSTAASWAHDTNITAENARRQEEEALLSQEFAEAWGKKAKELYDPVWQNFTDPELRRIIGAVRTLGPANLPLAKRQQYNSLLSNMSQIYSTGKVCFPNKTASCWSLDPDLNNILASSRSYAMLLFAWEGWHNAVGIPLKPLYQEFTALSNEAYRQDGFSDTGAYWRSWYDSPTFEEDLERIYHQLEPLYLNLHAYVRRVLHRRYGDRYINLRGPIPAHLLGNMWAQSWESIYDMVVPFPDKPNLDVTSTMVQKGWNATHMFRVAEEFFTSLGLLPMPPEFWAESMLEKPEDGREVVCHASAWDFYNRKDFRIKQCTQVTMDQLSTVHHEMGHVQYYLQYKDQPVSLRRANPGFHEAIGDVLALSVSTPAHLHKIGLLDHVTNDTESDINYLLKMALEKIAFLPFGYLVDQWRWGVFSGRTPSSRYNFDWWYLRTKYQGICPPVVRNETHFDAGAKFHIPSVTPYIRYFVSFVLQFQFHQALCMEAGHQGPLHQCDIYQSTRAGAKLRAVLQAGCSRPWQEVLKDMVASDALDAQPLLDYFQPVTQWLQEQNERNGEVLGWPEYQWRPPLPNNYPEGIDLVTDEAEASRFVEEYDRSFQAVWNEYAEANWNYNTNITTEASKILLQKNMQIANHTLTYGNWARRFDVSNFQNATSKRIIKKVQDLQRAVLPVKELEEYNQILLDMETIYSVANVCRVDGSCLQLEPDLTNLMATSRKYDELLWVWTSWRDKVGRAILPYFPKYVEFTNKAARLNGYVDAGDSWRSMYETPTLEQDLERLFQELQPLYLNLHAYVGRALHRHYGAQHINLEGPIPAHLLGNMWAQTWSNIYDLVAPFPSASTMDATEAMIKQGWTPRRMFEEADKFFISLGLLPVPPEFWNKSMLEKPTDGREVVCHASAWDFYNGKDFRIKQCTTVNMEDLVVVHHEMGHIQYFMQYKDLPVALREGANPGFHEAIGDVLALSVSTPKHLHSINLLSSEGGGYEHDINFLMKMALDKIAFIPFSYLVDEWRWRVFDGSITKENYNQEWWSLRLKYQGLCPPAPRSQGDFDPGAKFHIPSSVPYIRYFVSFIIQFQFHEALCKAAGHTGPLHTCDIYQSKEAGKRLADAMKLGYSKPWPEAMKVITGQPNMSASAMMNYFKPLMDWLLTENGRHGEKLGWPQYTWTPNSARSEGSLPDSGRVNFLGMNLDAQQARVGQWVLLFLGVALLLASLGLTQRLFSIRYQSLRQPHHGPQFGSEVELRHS
# Experiment: not given
# Settings: ACEIPs with mixed inhibitory patterns; ref Chen et al., 2020; Xie et al., 2022; cited from earlier work
row,Substance,ACE inhibition pattern
1,LSGYGP [literature mixed-pattern ACEIP derived from tilapia],mixed
2,SLPEW [literature mixed-pattern ACEIP derived from alpha-lactalbumin],mixed
3,VSLPEW [literature mixed-pattern ACEIP derived from alpha-lactalbumin],mixed

# Same assay, conditions: food-derived non-competitive ACEIPs; ref Xie et al., 2022; Paisansak et al., 2021; cited from earlier work
row,Substance,ACE inhibition pattern
1,GVSLPEW,non-competitive
2,GYGGVSLPEW,non-competitive
3,KIGSRSRFDVT,non-competitive
4,VGINYW,non-competitive

# Same assay, conditions: peptides derived from eel bone; ref Shao, 2022; cited from earlier work
row,Substance,IC50 (ACE inhibitory activity)
1,GGPGPSGPR,758 µg/mL
2,GPAGPR,1246 µg/mL
3,GPIGPPGPR,1441 µg/mL
4,GPMGPR,2247 µg/mL
5,GPSGAPGPR,1022 µg/mL
6,PMGPR,1470 µg/mL

# Same assay, conditions: peptides derived from large yellow croaker; ref Li, 2021; cited from earlier work
row,Substance,IC50 (ACE inhibitory activity)
1,LGYSF,510 µg/mL
2,LLAGGW,490 µg/mL

# System: not given
# Experiment: not given
# Settings: not given
# Remark: another data set of the same source
row,Substance,β-turn content
1,H-FDRPFL-OH,39.3%
2,H-KWEKPF-OH,41.7%

# Biological target: T1, ACE
# Experiment: In-vitro ACE inhibitory activity (HHL substrate, hippuric acid absorbance at 228 nm)
# Assay type: biochemical
# Settings: synthetic peptides; 5 mM HHL, 25 mU/mL ACE, 37 °C 30 min, absorbance 228 nm; calculated from regression equations; mean ± SD, n = 3
# Method: ACE inhibitory activity of whey hydrolysate fractions with different MW was assessed by a method reported by [Cushman and Cheung (1971)]. In brief, 30 μL of whey hydrolysate fraction was added to 80 μL of 5 mM HHL and incubated at 37 °C for 10 min. Then, 20 μL of 25 mU/ mL ACE was added to the mixture. The reaction was performed at 37 °C for 30 min and then stopped by adding 250 μL of 1 M HCl. Subsequently, 1.7 mL of ethyl acetate was added to the mixture to extract the released hippuric acid. After vigorous stirring for 10 s, the samples were submitted to centrifugation (TLG20M, Changsha Maijiasen Instrument Equipment Co., Ltd., China) at 5,000 rcf at 4 °C for 15 min. Then 1.4 mL of the organic phase was transferred to a fresh test tube. Ethyl acetate was evaporated by placing samples in a boiling water bath. The residue was dissolved in 3 mL of deionized water, and absorbance was measured at 228 nm by enzyme marker (Multiskan FC, Thermo Fisher Scientific). The following formula was used to calculate ACE inhibition rate: ACE-inhibition rate\%:[1-(C-D)/(A-B)]×100% Where A represents the absorbance with ACE but without the sample; B the absorbance without ACE and the sample; C the absorbance in the presence of ACE and the sample; and D the absorbance with the sample but without ACE.
row,Substance,IC50
1,DDFFHR [DDFFHR],> 1200 µM
2,GKWEKPF [GKWEKPF],> 1120 µM
3,YDFYPR [YDFYPR],> 1160 µM

# System: not given
# Experiment: not given
# Settings: 90 % homology to known functional peptides; ref BIOPEP, EROP-Moscow, MBPDB databases; cited from earlier work
# Text: Supplement mmc2.doc, table 1: Table S2. Bioactive peptides identified in Rushan cheese whey hydrolysates (RCWH). | column: Potential bioactive
row,Substance,Potential bioactive
1,AVPYPQR,"ACE inhibitor, Antimicrobial, Antioxidative"
2,DKIHPF,ACE inhibitor
3,DKVGINY,ACE inhibitor
4,DKVGINYW,ACE inhibitor
5,KVLPVPQK,"ACE inhibitor, Antioxidative"
6,LKPTPEGDLE,Dipeptidyl peptidase IV inhibitor
7,MAIPPKK,ACE inhibitor
8,PFPGPIPN,ACE inhibitor
9,SKVLPVPQ,ACE inhibitor
10,VYPFPGPI,Antihypertensive
11,VYPFPGPIP,Antihypertensive
12,YPFPGPI,"ACE inhibitor, Antioxidative, Anticancer"
13,YPFPGPIP,"ACE inhibitor, Antioxidative"

# From publication PMC10878854, “Identification, structural characterization, and molecular dynamic simulation of ACE inhibitory peptides in whey hydrolysates from Chinese Rushan cheese by-product” (Food Chemistry: X, 2024)
